Data on 12 compounds can be found in ChEMBL document CHEMBL1133837, “Discovery of selective hydroxamic acid inhibitors of tumor necrosis factor-alpha converting enzyme” (Bioorg Med Chem Lett, 2001).

For assay [1], the target named is 72 kDa type IV collagenase (Homo sapiens, UniProt P08253).
Another assay has as its target T1, Interstitial collagenase (Homo sapiens, UniProt P03956).
T1 sequence (P03956 whole entry): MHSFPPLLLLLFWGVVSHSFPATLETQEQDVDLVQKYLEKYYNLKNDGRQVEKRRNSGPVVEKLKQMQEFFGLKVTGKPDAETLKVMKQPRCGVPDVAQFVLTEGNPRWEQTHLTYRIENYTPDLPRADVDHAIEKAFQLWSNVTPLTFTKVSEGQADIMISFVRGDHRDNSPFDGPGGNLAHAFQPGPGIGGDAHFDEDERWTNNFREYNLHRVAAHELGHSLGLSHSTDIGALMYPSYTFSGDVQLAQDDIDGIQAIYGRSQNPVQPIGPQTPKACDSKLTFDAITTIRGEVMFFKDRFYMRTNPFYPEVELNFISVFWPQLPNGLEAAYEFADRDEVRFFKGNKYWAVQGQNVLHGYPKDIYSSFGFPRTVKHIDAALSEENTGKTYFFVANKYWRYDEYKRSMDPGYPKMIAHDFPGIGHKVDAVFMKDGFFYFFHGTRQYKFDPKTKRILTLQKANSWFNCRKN

Assay [2] addresses T2, Disintegrin and metalloproteinase domain-containing protein 17 (Homo sapiens, UniProt P78536).
Assay [3] addresses T2, Disintegrin and metalloproteinase domain-containing protein 17. Format: functional, cell-based, THP-1.

Structures are written as SMILES.

Chain of 72 kDa type IV collagenase (P08253 whole entry): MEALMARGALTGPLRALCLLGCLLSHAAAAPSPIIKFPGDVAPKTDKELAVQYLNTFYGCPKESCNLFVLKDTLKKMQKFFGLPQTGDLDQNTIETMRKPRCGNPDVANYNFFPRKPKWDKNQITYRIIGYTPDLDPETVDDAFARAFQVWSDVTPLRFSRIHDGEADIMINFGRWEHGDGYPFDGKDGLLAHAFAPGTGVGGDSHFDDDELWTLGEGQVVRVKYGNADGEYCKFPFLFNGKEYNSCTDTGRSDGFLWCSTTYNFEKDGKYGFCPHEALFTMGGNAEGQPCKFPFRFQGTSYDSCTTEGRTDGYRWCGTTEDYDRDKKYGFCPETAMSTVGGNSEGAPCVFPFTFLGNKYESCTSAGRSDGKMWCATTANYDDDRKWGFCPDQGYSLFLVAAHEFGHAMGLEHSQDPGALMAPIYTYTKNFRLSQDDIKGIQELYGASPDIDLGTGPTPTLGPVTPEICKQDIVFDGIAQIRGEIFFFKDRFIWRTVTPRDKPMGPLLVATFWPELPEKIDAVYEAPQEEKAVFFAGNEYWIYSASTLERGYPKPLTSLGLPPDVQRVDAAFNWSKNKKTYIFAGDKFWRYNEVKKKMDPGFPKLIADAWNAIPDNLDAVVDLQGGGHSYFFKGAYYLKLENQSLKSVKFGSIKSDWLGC
T2 sequence (P78536 whole entry, the tested form may be a part): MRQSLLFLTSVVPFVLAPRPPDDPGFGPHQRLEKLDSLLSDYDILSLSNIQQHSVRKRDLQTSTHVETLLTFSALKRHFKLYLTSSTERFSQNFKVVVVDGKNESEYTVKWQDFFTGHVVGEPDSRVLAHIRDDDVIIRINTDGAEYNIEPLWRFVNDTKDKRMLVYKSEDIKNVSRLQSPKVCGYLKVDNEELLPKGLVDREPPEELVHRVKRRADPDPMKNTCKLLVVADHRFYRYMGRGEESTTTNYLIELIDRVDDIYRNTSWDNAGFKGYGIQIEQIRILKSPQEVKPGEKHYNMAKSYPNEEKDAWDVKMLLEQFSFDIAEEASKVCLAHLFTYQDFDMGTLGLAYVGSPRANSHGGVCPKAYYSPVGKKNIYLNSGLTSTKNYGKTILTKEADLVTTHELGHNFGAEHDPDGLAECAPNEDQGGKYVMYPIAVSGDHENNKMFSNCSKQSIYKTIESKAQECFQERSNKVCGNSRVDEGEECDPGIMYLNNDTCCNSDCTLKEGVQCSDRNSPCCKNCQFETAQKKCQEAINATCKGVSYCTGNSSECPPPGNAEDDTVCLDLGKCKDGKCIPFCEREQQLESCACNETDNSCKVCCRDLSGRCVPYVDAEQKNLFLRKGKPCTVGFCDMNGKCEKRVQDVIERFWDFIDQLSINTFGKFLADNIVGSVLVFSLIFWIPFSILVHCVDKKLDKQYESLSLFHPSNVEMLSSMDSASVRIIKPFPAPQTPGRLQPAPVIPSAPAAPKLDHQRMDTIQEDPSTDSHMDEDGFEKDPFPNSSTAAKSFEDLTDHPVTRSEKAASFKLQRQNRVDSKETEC

`COc1cc(Oc2ccc(SCC(C)C(=O)NO)cc2)cc(OC)c1OC` (stereo not drawn): the IC50 in assay [1] is 3400 nM; against Interstitial collagenase, > 10000 nM; in assay [2], 180 nM. As for `COc1cc(Oc2ccc(S(=O)(=O)CC(C)C(=O)NO)cc2)cc(OC)c1OC` (stereo not drawn), the IC50 in assay [1] was 430 nM; against Interstitial collagenase, > 10000 nM. For the compound `CNC(=O)[C@@H]1Cc2ccc(cc2)OCCCC[C@H](C(=O)NO)[C@@H](CCCc2cc(OC)ccc2OC)C(=O)N1`, the values for the IC50 in assay [3] and in assay [2] were 4100 nM and 6.8 nM, respectively. On the same counts, the results for `O=C(c1ccccc1)[C@@H]1Cc2ccc(cc2)OCCCC[C@H](C(=O)NO)[C@@H](CCCc2cc(Br)cc(Br)c2)C(=O)N1` are > 5000 nM and 87 nM. With `COc1cc(Oc2ccc(S(=O)(=O)N3CCSC(C)(C)[C@@H]3C(=O)NO)cc2)cc(OC)c1OC`, the IC50 turned out to be 21 nM in assay [1] and 26 nM against Interstitial collagenase. With `CNC(=O)[C@@H]1Cc2ccc(cc2)OCCCC[C@H](C(=O)NO)[C@@H](CCCc2ccc(Cl)cc2)C(=O)N1`, the IC50 in assay [3] turned out to be 440 nM; in assay [2], 3.4 nM.

Take `CNC(=O)[C@@H]1Cc2ccc(cc2)OCCCC[C@H](C(=O)NO)[C@@H](CCCc2cc(C(F)(F)F)cc(C(F)(F)F)c2)C(=O)N1`: the results for the IC50 (on Interstitial collagenase; in assay [3]; in assay [2]) were > 10000 nM, 300 nM and 33 nM, respectively. On to `CC1(C)SCCN(S(=O)(=O)c2ccc(Oc3cccnc3)cc2)[C@H]1C(=O)NO`, for which the IC50 at Interstitial collagenase came out at 5.7 nM. This lies in the single-digit nanomolar range.

Regarding `COc1cc(CCC[C@H]2C(=O)N[C@H](C(=O)c3ccccc3)Cc3ccc(cc3)OCCCC[C@@H]2C(=O)NO)cc(OC)c1OC`, at Interstitial collagenase, the IC50 was > 10000 nM. For the compound `COCCOc1cc(CCC[C@H]2C(=O)N[C@H](C(=O)c3ccccc3)Cc3ccc(cc3)OCCCC[C@@H]2C(=O)NO)cc(OC)c1`, the IC50 is > 10000 nM against Interstitial collagenase, 15000 nM in assay [3] and 74 nM in assay [2].

In the case of `COc1cc(CCC[C@H]2C(=O)N[C@H](C(=O)c3ccccc3)Cc3ccc(cc3)OCCCC[C@@H]2C(=O)NO)cc(OC)c1`, the IC50 against Interstitial collagenase was > 10000 nM.

Consider `CNC(=O)[C@@H]1Cc2ccc(cc2)OCCCC[C@H](C(=O)NO)[C@@H](CCCc2cc(C)cc(C(C)C)c2)C(=O)N1`, for which the IC50 at Interstitial collagenase is > 1000 nM.
